Laboratory results taken from patent US20130315843A1, “COMPOSITION FOR REDUCTION OF TRPA1 AND TRPV1 SENSATIONS” (priority 2012, published 2013).

Key:
[1] = Headspace GC reduction of 1-propanethiol by protectant (Michael Acceptor) compounds; details: for % Thiol Reduction: 0.1% sodium lauryl sulfate, 1% test compound, headspace; for Percent Thiol Reduction vs. Control: 0.1% SLS
Method: For EXAMPLES 11 and 12 a 0.1% sodium lauryl sulfate (SLS) aqueous solution was prepared to contain either 1 ppm or 10 ppm of 1-propanethiol. SLS solution was added to the sample and control solutions to assist in solubilization of the more hydrophobic compounds. Control solutions contained surfactant and 1-propanethiol, while sample solutions contained these components plus a protectant compound added at either 0.01% or 0.05%. 100 μL aliquots of control or test solutions were aliquotted into a 22 mL headspace vial, vortexed for 30 seconds, and incubated for 30 minutes at 60 C in an oven. After that period, 1 mL of head space was sampled and injected into an Agilent 7890 gas chromatograph equipped with a sulfur chemiluminescence detector (GC-SCD). Peak areas of the 1-propanethiol control sample (no protectant compound added) were established by triplicate injection of the control sample. The area of the propanethiol peak produced from samples containing selected protectant molecules were then determined and ratioed to the 1-propanethiol control peak area, subtracted from 1, and multiplied by 100 to calculate percent reduction of the thiol peak, thus indicating the effectiveness of each protectant at reducing the level of thiol.
The samples in TABLE 17 were prepared by combining 1 ppm 1-propanethiol with 0.1% sodium lauryl sulfate with 1% of the test compounds. The volatile sulfurs were measured with headspace GC/MS using a SPEME column to capture the volatile sulfur.
The samples in TABLE 18 were prepared by combining either 1 or 10 ppm 1-propanethiol with 0.1% sodium lauryl sulfate with either 0.01% or 0.05% of the test compounds.

[2] = target: human TRPA1 (Homo sapiens, UniProt O75762); experiment: FLIPR Ca2+ assay, reduction of hydrogen peroxide activation of TRPA1; assay type: cell-based; set-up: expressed in transfected cells
human TRPA1, sequence (O75762 whole entry): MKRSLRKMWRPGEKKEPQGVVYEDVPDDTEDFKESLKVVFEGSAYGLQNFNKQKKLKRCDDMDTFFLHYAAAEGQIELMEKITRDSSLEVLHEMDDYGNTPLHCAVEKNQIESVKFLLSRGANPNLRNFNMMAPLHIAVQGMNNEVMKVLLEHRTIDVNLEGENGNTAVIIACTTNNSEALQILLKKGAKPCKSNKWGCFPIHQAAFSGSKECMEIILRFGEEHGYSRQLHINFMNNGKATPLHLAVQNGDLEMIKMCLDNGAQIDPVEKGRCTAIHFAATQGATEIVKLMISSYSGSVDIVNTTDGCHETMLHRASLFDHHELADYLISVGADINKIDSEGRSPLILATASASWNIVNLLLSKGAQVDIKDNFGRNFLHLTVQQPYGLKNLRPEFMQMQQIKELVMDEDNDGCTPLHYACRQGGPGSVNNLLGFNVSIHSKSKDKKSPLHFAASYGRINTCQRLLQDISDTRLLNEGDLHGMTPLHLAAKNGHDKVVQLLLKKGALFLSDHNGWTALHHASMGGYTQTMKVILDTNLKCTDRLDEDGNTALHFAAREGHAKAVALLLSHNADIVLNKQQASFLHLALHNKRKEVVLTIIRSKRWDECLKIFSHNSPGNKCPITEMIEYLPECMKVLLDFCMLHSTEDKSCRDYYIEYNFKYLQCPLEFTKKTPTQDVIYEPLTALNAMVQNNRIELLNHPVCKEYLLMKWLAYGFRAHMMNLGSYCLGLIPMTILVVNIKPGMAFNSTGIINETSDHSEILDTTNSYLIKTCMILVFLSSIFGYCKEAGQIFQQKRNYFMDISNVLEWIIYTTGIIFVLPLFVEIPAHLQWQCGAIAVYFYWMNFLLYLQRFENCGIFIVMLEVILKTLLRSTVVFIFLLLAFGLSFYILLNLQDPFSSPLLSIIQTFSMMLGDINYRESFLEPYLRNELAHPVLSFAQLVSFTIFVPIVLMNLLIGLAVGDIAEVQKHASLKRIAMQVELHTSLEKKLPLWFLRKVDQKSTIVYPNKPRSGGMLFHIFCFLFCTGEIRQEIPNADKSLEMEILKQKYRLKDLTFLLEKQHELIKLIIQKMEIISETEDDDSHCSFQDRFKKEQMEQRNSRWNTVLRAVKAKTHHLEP
Method: After centrifugation, a pellet of cells was formed in the bottom of the tube separating them from the supernatant solution.
(§1) The pelleted cells were re-suspended in 10 ml assay buffer and 90 μl aliquots (˜50,000 cells) per well delivered to a 96-well assay plate containing 10 μl of test compounds ([…]) or buffer control and incubated at room temperature for 30 minutes.

[3] = Trained sensory panel, burn sensation after brushing with menthol dentifrice; assay type: in vivo, human; set-up: key: 0 = no burning to 60 = highest intensity; 7.5 difference = significant; details: scale 0-60
Method: (§2) For EXAMPLES 6 and 7 sensory evaluation studies of menthol and hydrogen peroxide activity were conducted using a methodology patterned after the techniques described in M. C. Meilgaard, et al., Sensory Evaluation Techniques, 4th Ed. (2007). In one study, a panel of 8-15 trained sensory experts evaluated the menthol or peroxide sensations experienced after brushing with a dentifrice containing the menthol or hydrogen peroxide and the respective TRPA1 or TRPV1 antagonists. Panelists brushed teeth with 1.5 grams of a dentifrice (containing coolant) or control (no coolant) and then expectorated. After brush expectoration, panelists evaluated the burn intensity, assigning a number between 0 (no burning) to 60 ([…]). After rinse expectoration, panelists evaluated burning intensity according to the same 0 to 60 scale. Evaluations were conducted at 5, 15, 30, 45, 60 minute, etc. time points. At each evaluation, panelists were instructed to breathe in through pursed lips and evaluate overall burning sensation. In this test, a numerical score difference from the control of 7.5 indicates user significant differences or definite reduction in burning at the specified time point. Measures between 4.0 to 7.5 indicate a noticeable trend in the specified parameter, which is not statistically significant, but noticeable.
For EXAMPLE 6 (TABLES 8 and 9), a panel of 14 trained sensory experts evaluated the sensory profile experienced after brushing with the dentifrice sample formulations shown in TABLES 6 and 7 containing high levels of menthol followed by rinsing with water. Panelists brushed teeth with 1.5 grams of a test dentifrice (containing high menthol levels) or control (no menthol) for 36 seconds and then expectorated. The dentifrice sample formulations (control and high L-Menthol) are shown below in TABLE 6 (with peppermint flavor) and TABLE 7 (with spearmint flavor). The dentifrices were made using conventional methods and are shown below with component amounts in weight % of total composition. […]
For TABLE 10 all the Samples had the same formulation as Sample E from TABLE 6, except for the Control which lacked menthol. After brushing or mouthwash expectoration, panelists evaluated the burning sensation, assigning a number between 0 (no sensation) to 60 (highest intensity sensation). Evaluations were conducted at 5, 10, 20 and 30 minute time points, following expectoration. At each evaluation, panelists were instructed to breathe in through pursed lips and evaluate overall sensation. In this test, a numerical score of 7.5 indicates a significant user noticeable sensation. Differences less than 7.5, but greater than 5.0 indicate the trending of the data on a specific attribute.

[4] = Trained sensory panel, burning and numbing sensation after hydrogen peroxide mouthwash; assay type: in vivo, human; set-up: key to Burning Sensation: 0 = no sensation, 60 = highest intensity sensation; details: scale 0-60
Method: as §2
For EXAMPLE 7, a panel of 10 trained sensory experts evaluated the sensory profile experienced after rinsing with 30 grams of a test mouthwash (containing hydrogen peroxide and TRPA1 or TRPV1 antagonist) or control (containing hydrogen peroxide and no TRPA1 or TRPV1 antagonist) for 30 seconds and then expectorated. After expectoration, panelists evaluated the sensorial profile (cooling, warming, burning, numbing, and astringency), assigning a number between 0 (no sensation) to 60 (highest intensity sensation). Evaluations were conducted at 2.5, 5, 10, 20, and 30 minute time points, following expectoration at each evaluation, panelists were instructed to breathe in through pursed lips and evaluate overall burning or numbing sensation. The hydrogen peroxide containing mouthwash formulations are shown below in TABLE 11. The mouthwash samples tested comprised a control having the components listed in TABLE 11 by weight % of the composition or the control formulation plus TRPA1 or TRPV1 antagonist, as shown in TABLE 12. The mouthwashes were made using conventional methods and are shown below with amounts in weight % of total composition.

[5] = target: T1, human TRPV1 (Homo sapiens, UniProt Q8NER1); experiment: FLIPR Ca2+ assay, reduction of hydrogen peroxide activation of TRPV1; assay type: cell-based; set-up: expressed in transfected cells
T1 sequence (Q8NER1 whole entry): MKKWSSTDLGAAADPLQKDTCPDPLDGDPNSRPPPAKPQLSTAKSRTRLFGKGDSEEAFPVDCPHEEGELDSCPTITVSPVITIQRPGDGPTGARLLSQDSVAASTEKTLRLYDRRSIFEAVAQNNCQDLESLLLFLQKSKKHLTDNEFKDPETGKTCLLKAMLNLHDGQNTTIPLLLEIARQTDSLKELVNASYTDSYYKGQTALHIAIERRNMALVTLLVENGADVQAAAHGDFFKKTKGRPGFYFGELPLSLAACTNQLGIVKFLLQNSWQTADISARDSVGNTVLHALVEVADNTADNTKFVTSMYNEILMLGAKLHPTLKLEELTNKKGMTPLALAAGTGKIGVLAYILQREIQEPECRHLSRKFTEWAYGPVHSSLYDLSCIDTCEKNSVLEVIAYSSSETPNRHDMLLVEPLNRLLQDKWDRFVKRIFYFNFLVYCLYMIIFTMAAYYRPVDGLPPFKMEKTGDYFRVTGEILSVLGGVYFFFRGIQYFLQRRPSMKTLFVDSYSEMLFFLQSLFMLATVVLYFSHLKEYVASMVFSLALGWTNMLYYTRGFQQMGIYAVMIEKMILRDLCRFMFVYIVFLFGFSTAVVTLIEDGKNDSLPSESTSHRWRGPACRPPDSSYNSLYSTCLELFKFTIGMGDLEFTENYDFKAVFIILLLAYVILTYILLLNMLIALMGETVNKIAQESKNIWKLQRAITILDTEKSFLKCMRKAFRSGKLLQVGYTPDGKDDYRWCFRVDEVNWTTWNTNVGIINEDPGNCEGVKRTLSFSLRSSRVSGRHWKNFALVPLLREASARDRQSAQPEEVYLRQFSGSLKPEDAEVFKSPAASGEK
Method: (§3) Cells were detached with addition of 10 ml of PBS (phosphate buffered saline) by hand shaking gently. Cells were transferred to a 50 ml tube and centrifuged at 850 rpm for 3 minutes to remove PBS.
The pelleted cells were re-suspended in 10 ml assay buffer and 90 μl aliquots (˜50,000 cells) per well delivered to a 96-well assay plate containing 10 μl of test compounds (1 mM in assay buffer, […]) or buffer control and incubated at room temperature for 30 minutes.

[6] = target: T1, human TRPV1; experiment: FLIPR Ca2+ assay, reduction of capsaicin activation of TRPV1; assay type: cell-based; set-up: expressed in transfected cells
Method: as §3, §1

[7] = 2 Min 30 SEC After Expectoration, H2O2 mouthwash, antagonist levels as E48
[8] = 5 Min After Expectoration, H2O2 mouthwash, antagonist levels as E48
[9] = 10 Min After Expectoration, H2O2 mouthwash, antagonist levels as E48
[10] = 20 Min After Expectoration, H2O2 mouthwash, antagonist levels as E48
[11] = 30 Min After Expectoration, H2O2 mouthwash, antagonist levels as E48
[12] = After Expectoration, H2O2 mouthwash, antagonist levels as E48
[13] = 1 ppm 1-propanethiol, 0.01% test compound
[14] = 1 ppm 1-propanethiol, 0.05% test compound
[15] = 10 ppm 1-propanethiol, 0.01% test compound
[16] = 10 ppm 1-propanethiol, 0.05% test compound

CCc1occc(=O)c1O [Ethyl maltol]
% Thiol Reduction ([1]; 1 ppm 1-propanethiol): −17.2%

CC(C)C(=O)O[C@@H]1C[C@H]2CC[C@]1(C)C2(C)C [Isobornyl Isobutyrate]
% Reduction of Hydrogen Peroxide TRPA1 Activation [2]: 80% | Block of hydrogen peroxide activation of TRPA1 [2]: BLOCK ONLY H2O2/TRPA1 | reduction of hydrogen peroxide activation of TRPA1, in words [2]: reduced hydrogen peroxide activation of TRPA1 | Burning Sensation Rating ([3]; 5 Min After Rinse, dentifrice Sample E (1% menthol) with antagonist levels as E42): 12.8 | Burning Sensation Rating ([3]; 10 Min After Rinse, dentifrice Sample E (1% menthol) with antagonist levels as E42): 5.6 | Burning Sensation Rating ([3]; 20 Min After Rinse, dentifrice Sample E (1% menthol) with antagonist levels as E42): 0.6 | Burning Sensation Rating ([3]; 30 Min After Rinse, dentifrice Sample E (1% menthol) with antagonist levels as E42): 0.0 | Burning Sensation Rating ([3]; After Expectoration, dentifrice Sample E (1% added menthol) with Apritone 200 ppm, Dihydrojasmone 6 ppm, Isobornyl Isobutyrate 100 ppm, α-heptyl-γ-valerolactone 100 ppm as named): 25.4 | Burning Sensation Rating ([3]; After Rinse, dentifrice Sample E (1% menthol) with antagonist levels as E42): 22.8 | Burning Sensation [4, 7]: 17.6 | Numbing Sensation [4, 7]: 7.9 | Burning Sensation [4, 8]: 11.4 | Numbing Sensation [4, 8]: 5.8 | Burning Sensation [4, 9]: 5.1 | Numbing Sensation [4, 9]: 2.5 | Burning Sensation [4, 10]: 0.0 | Numbing Sensation [4, 10]: 0.0 | Burning Sensation [4, 11]: 0.0 | Numbing Sensation [4, 11]: 0.0 | Burning Sensation [4, 12]: 20.9 | Numbing Sensation [4, 12]: 8.4 | Burning Sensation ([4]; Initial in Mouth, hydrogen peroxide mouthwash (TABLE 11) with Apritone 200 ppm, Isobornyl Isobutyrate 100 ppm, Dihydrojasmone 6 ppm as named, 10 panelists): 12.7 | reduction of hydrogen peroxide activation of TRPV1, in words [5]: hydrogen peroxide reduction of TRPV1 | % inhibition of TRPV1 activation by 500 uM H2O2 ([5]; Dose 1000): 52% | % Reduction of Hydrogen Peroxide TRPV1 Activation ([5]; antagonist 100 μM against 500 μM hydrogen peroxide): 52% | Ca++ counts ([5]; with compound, Dose 1000, 500 uM H2O2): 541 | % inhibition of TRPV1 activation by 350 nM Capsaicin ([6]; Dose 1000): 1.5% | Ca++ counts ([6]; with compound, Dose 1000, 350 nM Capsaicin): 14803

CC1=CC(=O)CC(C)(C)C1 [Isophorone]
% Thiol Reduction ([1]; 1 ppm 1-propanethiol): 43.1%

CC/C=C\CC1=C(C)CCC1=O [cis-Jasmone]
Percent Thiol Reduction vs. Control [1, 13]: 36.1% | Percent Thiol Reduction vs. Control [1, 14]: 55.3% | Percent Thiol Reduction vs. Control [1, 15]: 25.4% | Percent Thiol Reduction vs. Control [1, 16]: 8.2%

C/C=C/C(=O)C1C(C)C=CCC1(C)C (stereo not drawn) [delta damascone]
thiol reduction, comparison in words ([1]; 10 ppm 1-propanethiol, compound 0.01%): higher activity at its lower concentration (0.01%) than any of the other michael acceptor's

C/C=C/C(=O)C1C(C)C=CCC1(C)C (stereo not drawn) [delta-Damascone]
Percent Thiol Reduction vs. Control [1, 13]: 77.7% | Percent Thiol Reduction vs. Control [1, 14]: 82.3% | Percent Thiol Reduction vs. Control [1, 15]: 81.0% | Percent Thiol Reduction vs. Control [1, 16]: 81.2%
